Results on 17 molecules are retold here after PubChem BioAssay AID256 (DTP/NCI, 2004).

“And” between values parts separate entries of the source, which are not always exact repeats. Identical values can stand only once. Inconclusive results and toxic doses are left out.

This test relates to CD2F1 mice, L1210 leukemia ip, survival T/C. The test can be described thus: NCI In Vivo Anticancer Drug Screen. Data for tumor model L1210 Leukemia (intraperitoneal) in CD2F1 (CDF1) mice. The settings on record: higher = longer survival. The method in brief: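 Vehicle-treated tumor-bearing mice served as controls (C) for compound-treated mice (T). Reported figure is T divided by C.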

Where [1] appears, read: endpoint: mean survival time, dose: 50.0 mg/kg/injection, schedule: Q01DX009 (ip), vehicle: saline with Tween-80.
Where [2] appears, read: endpoint: mean survival time, dose: 100.0 mg/kg/injection, schedule: Q01DX009 (ip), vehicle: saline with Tween-80.
[3] abbreviates: endpoint: mean survival time, dose: 200.0 mg/kg/injection, schedule: Q01DX009 (ip), vehicle: saline with Tween-80.
Setting [4] is: endpoint: mean survival time, dose: 25.0 mg/kg/injection, schedule: Q01DX009 (ip), vehicle: other.
Setting [5] is: endpoint: mean survival time, dose: 50.0 mg/kg/injection, schedule: Q01DX009 (ip), vehicle: other.
[6] abbreviates: endpoint: mean survival time, dose: 100.0 mg/kg/injection, schedule: Q01DX009 (ip), vehicle: other.
The mark [7] stands for this setting: endpoint: mean survival time, dose: 400.0 mg/kg/injection, schedule: Q01DX009 (ip), vehicle: saline with Tween-80.
The mark [8] stands for this setting: endpoint: mean survival time, dose: 100.0 mg/kg/injection, schedule: Q01DX001 (ip), vehicle: saline with Tween-80.
Setting [9] is: endpoint: mean survival time, dose: 200.0 mg/kg/injection, schedule: Q01DX001 (ip), vehicle: saline with Tween-80.
Where [10] appears, read: endpoint: mean survival time, dose: 100.0 mg/kg/injection, schedule: Q04DX003 (ip), vehicle: saline with Tween-80.
Where [11] appears, read: endpoint: mean survival time, dose: 200.0 mg/kg/injection, schedule: Q04DX003 (ip), vehicle: saline with Tween-80.
[12] abbreviates: endpoint: mean survival time, dose: 400.0 mg/kg/injection, schedule: Q04DX003 (ip), vehicle: saline with Tween-80.

On to `BrC1c2cccc3cccc(c23)C1Br` (configuration not stated), for which the T/C reads like this: (endpoint: mean survival time, dose: 6.25 mg/kg/injection, schedule: Q01DX009 (ip), vehicle: saline with Tween-80) 115 % of control; (endpoint: mean survival time, dose: 12.5 mg/kg/injection, schedule: Q01DX009 (ip), vehicle: saline with Tween-80) 108 % of control; (endpoint: mean survival time, dose: 25.0 mg/kg/injection, schedule: Q01DX009 (ip), vehicle: saline with Tween-80) 115 % of control and 106 % of control; under setting [1], 115 % of control and 105 % of control; under setting [2], 100 % of control and 112 % of control; under setting [3], 110 % of control.
Regarding `Clc1ccc(N=C/C=C/c2ccccc2)cc1`, the T/C under setting [4] is 101 % of control; the T/C under setting [5] was 97 % of control; the T/C under setting [6] is 95 % of control; the T/C (endpoint: mean survival time, dose: 100.0 mg/kg/injection, schedule: Q04DX003 (ip), vehicle: other) was 87 % of control; the T/C (endpoint: mean survival time, dose: 400.0 mg/kg/injection, schedule: Q04DX003 (ip), vehicle: other) was 89 % of control.
For `C#CCOc1c(C(=O)OCC)cnc2c1c(C)nn2CC`, the T/C is, setting by setting: (endpoint: mean survival time, dose: 100.0 mg/kg/injection, schedule: Q04DX003 (ip), vehicle: Klucel (hydroxypropylcellulose) (HPC)) 101 % of control; (endpoint: mean survival time, dose: 200.0 mg/kg/injection, schedule: Q04DX003 (ip), vehicle: Klucel (hydroxypropylcellulose) (HPC)) 97 % of control; (endpoint: mean survival time, dose: 400.0 mg/kg/injection, schedule: Q04DX003 (ip), vehicle: Klucel (hydroxypropylcellulose) (HPC)) 101 % of control.
For the molecule `C/C=C(/CCCCC)C(=O)OCC`, the T/C runs as follows: under setting [2], 106 % of control; under setting [3], 100 % of control; under setting [7], 101 % of control.
Consider `O=C(CNC(=O)NCc1ccco1)N/N=C/c1c(O)ccc2ccccc12`, for which the T/C is, setting by setting: under setting [1], 93 % of control; under setting [2], 97 % of control; under setting [3], 101 % of control.
As to `COC12C(COC(N)=O)C3=C(C(=O)C(C)=C(NC4CONC4=O)C3=O)N1CC1NC12` (configuration not stated), the T/C runs as follows: (endpoint: mean survival time, dose: 1.5 mg/kg/injection, schedule: Q01DX001 (ip), vehicle: water) 97 % of control; (endpoint: mean survival time, dose: 3.0 mg/kg/injection, schedule: Q01DX001 (ip), vehicle: water) 98 % of control; (endpoint: mean survival time, dose: 6.0 mg/kg/injection, schedule: Q01DX001 (ip), vehicle: water) 95 % of control; (endpoint: mean survival time, dose: 12.0 mg/kg/injection, schedule: Q01DX001 (ip), vehicle: water) 98 % of control; (endpoint: mean survival time, dose: 24.0 mg/kg/injection, schedule: Q01DX001 (ip), vehicle: water) 97 % of control; (endpoint: mean survival time, dose: 50.0 mg/kg/injection, schedule: Q01DX001 (ip), vehicle: distilled water + Tween-80) 112 % of control. Moreover, the T/C (endpoint: mean survival time, dose: 100.0 mg/kg/injection, schedule: Q01DX001 (ip), vehicle: distilled water + Tween-80) is 114 % of control.
For `CCCC(=O)Nc1ncnc2c1[nH]c(=O)n2C1OC2COP(=O)(O)OC2C1OC(=O)CCC` (configuration not stated), the T/C by setting is: (endpoint: mean survival time, dose: 6.25 mg/kg/injection, schedule: Q01DX005 (ip), vehicle: water) 97 % of control; (endpoint: mean survival time, dose: 12.5 mg/kg/injection, schedule: Q01DX005 (ip), vehicle: water) 93 % of control; (endpoint: mean survival time, dose: 25.0 mg/kg/injection, schedule: Q01DX005 (ip), vehicle: water) 97 % of control; (endpoint: mean survival time, dose: 50.0 mg/kg/injection, schedule: Q01DX005 (ip), vehicle: water) 97 % of control; (endpoint: mean survival time, dose: 100.0 mg/kg/injection, schedule: Q01DX005 (ip), vehicle: water) 89 % of control.
Take `C=CCC(Cc1ccccc1)C1=NC(C)(C)CC(C)O1` (configuration not stated): the T/C reads like this: under setting [1], 101 % of control; under setting [8], 97 % of control; under setting [2], 97 % of control; under setting [9], 103 % of control; under setting [3], 94 % of control.
As for `CC(C)c1nc(CCl)c(CCl)n1Cc1ccccc1`, the T/C reads like this: (endpoint: mean survival time, dose: 50.0 mg/kg/injection, schedule: Q01DX009 (ip), vehicle: Klucel (hydroxypropylcellulose) (HPC)) 97 % of control; (endpoint: mean survival time, dose: 100.0 mg/kg/injection, schedule: Q01DX009 (ip), vehicle: Klucel (hydroxypropylcellulose) (HPC)) 94 % of control; (endpoint: mean survival time, dose: 200.0 mg/kg/injection, schedule: Q01DX009 (ip), vehicle: Klucel (hydroxypropylcellulose) (HPC)) 90 % of control.
Regarding `COc1cc2c(cc1OC)-c1cc(C)c3cc(OC)c(OC)cc3[n+]1CC2`, the T/C under setting [4] is 109 % of control, the T/C under setting [5] was 115 % of control and the T/C under setting [6] was 109 % of control.
In the case of `COC(CN(CC(OC)OC)c1ncnc2nc[nH]c12)OC`, the T/C (endpoint: mean survival time, dose: 25.0 mg/kg/injection, schedule: Q01DX005 (ip), vehicle: other) is 93 % of control; the T/C (endpoint: mean survival time, dose: 50.0 mg/kg/injection, schedule: Q01DX005 (ip), vehicle: other) was 91 % of control; the T/C (endpoint: mean survival time, dose: 100.0 mg/kg/injection, schedule: Q01DX005 (ip), vehicle: other) is 98 % of control; the T/C (endpoint: mean survival time, dose: 200.0 mg/kg/injection, schedule: Q01DX005 (ip), vehicle: other) is 98 % of control; the T/C (endpoint: mean survival time, dose: 400.0 mg/kg/injection, schedule: Q01DX005 (ip), vehicle: other) is 96 % of control.
For `O=C(O)CCC(NC(=O)OCc1ccccc1)C(=O)OCc1ccccc1` (configuration not stated), the T/C reads like this: under setting [10], 95 % of control; under setting [11], 93 % of control; under setting [12], 96 % of control.
As for `O=C(O)C(O)C(O)C(=O)O.[NH-]C1CCCCC1[NH-].[Pt+2]` (configuration not stated), the T/C was 115 % of control (endpoint: mean survival time, dose: 1.56 mg/kg/injection, schedule: Q04DX003 (ip), vehicle: water); 367 % of control (endpoint: mean survival time, dose: 12.5 mg/kg/injection, schedule: Q04DX003 (ip), vehicle: water); 266 % of control (endpoint: mean survival time, dose: 25.0 mg/kg/injection, schedule: Q04DX003 (ip), vehicle: water); 201 % of control (endpoint: mean survival time, dose: 50.0 mg/kg/injection, schedule: Q04DX003 (ip), vehicle: water).
As for `CC(=O)Nc1ccc(C)c(Cl)c1`, the T/C runs as follows: under setting [2], 96 % of control; under setting [10], 101 % of control; under setting [3], 94 % of control; under setting [11], 103 % of control; under setting [7], 88 % of control; under setting [12], 101 % of control.
As for `CC1=C(/C=C/C(C)=C/C=C/C(C)=C/C(=O)Nc2ccc(O)cc2)C(C)(C)CCC1`, the T/C (endpoint: median survival time, dose: 12.5 mg/kg/injection, schedule: Q01DX005 (ip), vehicle: saline with Tween-80) is 98 % of control; the T/C (endpoint: median survival time, dose: 25.0 mg/kg/injection, schedule: Q01DX005 (ip), vehicle: saline with Tween-80) is 101 % of control; the T/C (endpoint: median survival time, dose: 50.0 mg/kg/injection, schedule: Q01DX005 (ip), vehicle: saline with Tween-80) was 98 % of control; the T/C (endpoint: median survival time, dose: 100.0 mg/kg/injection, schedule: Q01DX005 (ip), vehicle: saline with Tween-80) was 92 % of control; the T/C (endpoint: median survival time, dose: 200.0 mg/kg/injection, schedule: Q01DX005 (ip), vehicle: saline with Tween-80) was 96 % of control.
`Nc1nc(=O)n(CCCOc2cccc(NC(=O)c3cccc(S(=O)(=O)F)c3)c2)cc1-c1ccc(Cl)c(Cl)c1`: the T/C was 87 % of control under setting [8]; 90 % of control under setting [9]; 87 % of control (endpoint: mean survival time, dose: 400.0 mg/kg/injection, schedule: Q01DX001 (ip), vehicle: saline with Tween-80).
As to `COc1cc(OC)c(NC(=O)Nc2ccc(SCC(=O)O)cc2)cc1Cl`, the T/C is 93 % of control under setting [1], 89 % of control under setting [2] and 86 % of control under setting [3].
